# From publication PMC6364417, “Kinase inhibitor library screening identifies synergistic drug combinations effective in sensitive and resistant melanoma cells” (Journal of Experimental & Clinical Cancer Research : CR, 2019)
# Columns and labels:
# Assay in all cases: Kinase inhibitor library screening, PrestoBlue cell viability, 1 or 10 μM, 72 h
# [1] = test system: A375 cells (parental)
# [2] = test system: 501Mel-GP cells (Dabrafenib-resistant)
# [3] = test system: A375-GP cells (Dabrafenib-resistant)
# [4] = test system: IGR37-XP cells (Vemurafenib-resistant)
# [5] = test system: A375-XP cells (Vemurafenib-resistant)
# [6] = test system: IGR37-GP cells (Dabrafenib-resistant)
# [7] = test system: 501Mel-XP cells (Vemurafenib-resistant)
# [8] = test system: 501Mel cells (parental)
# How it was run: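 Single-point screen at two doses over three days. Parental and BRAF-inhibitor-resistant sublines (XP: Vemurafenib; GP: Dabrafenib) were assessed by PrestoBlue viability, reported relative to untreated cells.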
# [9] = test system: IGR37 cells (parental)
smiles,measurement,setting,value
Cc1ccc(Nc2nccc(N(C)c3ccc4c(C)n(C)nc4c3)n2)cc1S(N)(=O)=O.Cl [Pazopanib HCl],cell viability (kinase inhibitor library screening),"[1]; A375 Parental, 10μΜ, in %",71.9
same,cell viability (kinase inhibitor library screening),"[2]; 501Mel GP, 1μΜ, in %",95.6
same,cell viability (kinase inhibitor library screening),"[2]; 501Mel GP, 10μΜ, in %",65.3
same,cell viability (kinase inhibitor library screening),"[3]; A375 GP, 1μΜ, in %",98.9
same,cell viability (kinase inhibitor library screening),"[3]; A375 GP, 10μΜ, in %",71.0
same,cell viability (kinase inhibitor library screening),"[4]; IGR37 XP, 10μΜ, in %",65.8
same,cell viability (kinase inhibitor library screening),"[5]; A375 XP, 10μΜ, in %",75.2
same,cell viability (kinase inhibitor library screening),"[6]; IGR37 GP, 1μΜ, in %",83.2
same,cell viability (kinase inhibitor library screening),"[6]; IGR37 GP, 10μΜ, in %",61.1
same,cell viability (kinase inhibitor library screening),"[7]; 501Mel XP, 1μΜ, in %",88.8
same,cell viability (kinase inhibitor library screening),"[7]; 501Mel XP, 10μΜ, in %",48.8
same,cell viability (kinase inhibitor library screening),"[8]; 501Mel Parental, 1μΜ, in %",99.1
same,cell viability (kinase inhibitor library screening),"[8]; 501Mel Parental, 10μΜ, in %",86.1
same,cell viability (kinase inhibitor library screening),"[9]; IGR37 Parental, 1μΜ, in %",96.1
same,cell viability (kinase inhibitor library screening),"[9]; IGR37 Parental, 10μΜ, in %",84.7
CCOc1cc2ncc(C#N)c(Nc3ccc(F)c(Cl)c3)c2cc1NC(=O)/C=C/CN(C)C [Pelitinib (EKB-569)],"cell viability, A375 Parental, 1μΜ","[1]; A375 Parental, 1μΜ, 72 h, in %",103.3
same,"cell viability, A375 Parental, 10μΜ","[1]; A375 Parental, 10μΜ, 72 h, in %",79.2
same,"cell viability, 501Mel GP, 1μΜ","[2]; 501Mel GP, 1μΜ, 72 h, in %",102.6
same,"cell viability, 501Mel GP, 10μΜ","[2]; 501Mel GP, 10μΜ, 72 h, in %",92.4
same,"cell viability, A375 GP, 1μΜ","[3]; A375 GP, 1μΜ, 72 h, in %",98.8
same,"cell viability, A375 GP, 10μΜ","[3]; A375 GP, 10μΜ, 72 h, in %",88.7
same,"cell viability, IGR37 XP, 10μΜ","[4]; IGR37 XP, 10μΜ, 72 h",77.5%
same,"cell viability, IGR37 XP, 1μΜ","[4]; IGR37 XP, 1μΜ, 72 h, in %",97.8
same,"cell viability, A375 XP, 1μΜ","[5]; A375 XP, 1μΜ, 72 h, in %",104.6
same,"cell viability, A375 XP, 10μΜ","[5]; A375 XP, 10μΜ, 72 h, in %",96.9
same,"cell viability, IGR37 GP, 10μΜ","[6]; IGR37 GP, 10μΜ, 72 h",92.3%
same,"cell viability, IGR37 GP, 1μΜ","[6]; IGR37 GP, 1μΜ, 72 h, in %",97.5
same,"cell viability, 501Mel XP, 10μΜ","[7]; 501Mel XP, 10μΜ, 72 h, in %",91.9
same,"cell viability, 501Mel Parental, 1μΜ","[8]; 501Mel Parental, 1μΜ, 72 h, in %",102.9
same,"cell viability, 501Mel Parental, 10μΜ","[8]; 501Mel Parental, 10μΜ, 72 h, in %",89.9
same,"cell viability, IGR37 Parental, 1μΜ","[9]; IGR37 Parental, 1μΜ, 72 h, in %",99.8
same,"cell viability, IGR37 Parental, 10μΜ","[9]; IGR37 Parental, 10μΜ, 72 h, in %",97.0
Oc1cc(O)cc(/C=C/c2ccc(O)c(O)c2)c1 [Piceatannol],cell viability (kinase inhibitor library screening),"[1]; A375 Parental, 1μΜ, in %",98.9
same,cell viability (kinase inhibitor library screening),"[1]; A375 Parental, 10μΜ, in %",76.1
same,cell viability (kinase inhibitor library screening),"[2]; 501Mel GP, 1μΜ, in %",95.8
same,cell viability (kinase inhibitor library screening),"[2]; 501Mel GP, 10μΜ, in %",80.4
same,cell viability (kinase inhibitor library screening),"[3]; A375 GP, 1μΜ, in %",93.0
same,cell viability (kinase inhibitor library screening),"[3]; A375 GP, 10μΜ, in %",80.7
same,cell viability (kinase inhibitor library screening),"[4]; IGR37 XP, 1μΜ, in %",92.0
same,cell viability (kinase inhibitor library screening),"[4]; IGR37 XP, 10μΜ, in %",82.4
same,cell viability (kinase inhibitor library screening),"[5]; A375 XP, 1μΜ, in %",98.5
same,cell viability (kinase inhibitor library screening),"[5]; A375 XP, 10μΜ, in %",89.0
same,cell viability (kinase inhibitor library screening),"[6]; IGR37 GP, 1μΜ, in %",91.5
same,cell viability (kinase inhibitor library screening),"[6]; IGR37 GP, 10μΜ, in %",85.8
same,cell viability (kinase inhibitor library screening),"[7]; 501Mel XP, 1μΜ, in %",96.8
same,cell viability (kinase inhibitor library screening),"[7]; 501Mel XP, 10μΜ, in %",81.1
same,cell viability (kinase inhibitor library screening),"[8]; 501Mel Parental, 1μΜ, in %",98.4
same,cell viability (kinase inhibitor library screening),"[8]; 501Mel Parental, 10μΜ, in %",84.8
same,cell viability (kinase inhibitor library screening),"[9]; IGR37 Parental, 1μΜ, in %",98.6
same,cell viability (kinase inhibitor library screening),"[9]; IGR37 Parental, 10μΜ, in %",86.6
CC(C)(C)c1cc(NC(=O)Nc2ccc(-c3cn4c(n3)sc3cc(OCCN5CCOCC5)ccc34)cc2)no1 [Quizartinib (AC220)],viability at 1 µM,"[1]; Homo sapiens, A-375, 72 h, read-out: cell viability, A375 Parental, 1μΜ",104%
same,viability at 10 µM,"[1]; Homo sapiens, A-375, 72 h, read-out: cell viability, A375 Parental, 10μΜ",96.3%
same,viability at 1 µM,"[2]; Homo sapiens, 72 h, read-out: cell viability, 501Mel GP, 1μΜ",109%
same,viability at 10 µM,"[2]; Homo sapiens, 72 h, read-out: cell viability, 501Mel GP, 10μΜ",93%
same,viability at 1 µM,"[3]; Homo sapiens, A-375, 72 h, read-out: cell viability, A375 GP, 1μΜ",99.4%
same,viability at 10 µM,"[3]; Homo sapiens, A-375, 72 h, read-out: cell viability, A375 GP, 10μΜ",88.8%
same,viability at 1 µM,"[4]; Homo sapiens, IGR-37, 72 h, read-out: cell viability, IGR37 XP, 1μΜ",43.9%
same,viability at 10 µM,"[4]; Homo sapiens, IGR-37, 72 h, read-out: cell viability, IGR37 XP, 10μΜ",7.2%
same,viability at 1 µM,"[5]; Homo sapiens, A-375, 72 h, read-out: cell viability, A375 XP, 1μΜ",108%
same,viability at 10 µM,"[5]; Homo sapiens, A-375, 72 h, read-out: cell viability, A375 XP, 10μΜ",96.3%
same,viability at 1 µM,"[6]; Homo sapiens, IGR-37, 72 h, read-out: cell viability, IGR37 GP, 1μΜ",67.8%
same,viability at 10 µM,"[6]; Homo sapiens, IGR-37, 72 h, read-out: cell viability, IGR37 GP, 10μΜ",28.8%
same,viability at 1 µM,"[7]; Homo sapiens, 72 h, read-out: cell viability, 501Mel XP, 1μΜ",94.6%
same,viability at 10 µM,"[7]; Homo sapiens, 72 h, read-out: cell viability, 501Mel XP, 10μΜ",80.5%
same,viability at 1 µM,"[8]; Homo sapiens, 72 h, read-out: cell viability, 501Mel Parental, 1μΜ",95.1%
same,viability at 10 µM,"[8]; Homo sapiens, 72 h, read-out: cell viability, 501Mel Parental, 10μΜ",89.6%
same,viability at 1 µM,"[9]; Homo sapiens, IGR-37, 72 h, read-out: cell viability, IGR37 Parental, 1μΜ",97.3%
same,viability at 10 µM,"[9]; Homo sapiens, IGR-37, 72 h, read-out: cell viability, IGR37 Parental, 10μΜ",102%
